Where a name gives a salt, the structure may show the parent alone.
Target: T1, H+,K+-ATPase (Sus scrofa, UniProt P19156)
T1 construct: The obtained microsomal fraction was used as a proton, potassium—adenosine triphosphatase standard product; from tissue; host or cells: swine stomach, gastric mucous membrane microsomal fraction
Assay: Proton potassium-adenosine triphosphatase (H+,K+-ATPase) inhibitory activity test
Assay type: biochemical
Details: gastric mucous membrane microsomal fraction from swine stomach; pH 6.5, 37° C., malachite green colorimetry at 610 nm; read-out: IC50 (50% inhibitory concentration of proton, potassium-adenosine triphosphatase)
Protocol: Proton Potassium—Adenosine Triphosphatase (H^+,K^+-ATPase) Inhibitory Activity Test
According to the method [Biochim. Biophys. Acta, 728, 31 (1983)] of Wallmark et al., a gastric mucous membrane microsomal fraction was prepared from the stomach of swine. First, the stomach was removed, washed with tap water, immersed in 3 mol/L brine, and the surface of the mucous membrane was wiped with a paper towel. The gastric mucous membrane was detached, chopped, and homogenized in a 0.25 mol/L saccharose solution (pH 6.8) containing 1 mmol/L EDTA and 10 mmol/L tris-hydrochloric acid using polytron (Kinematica). The obtained homogenate was centrifuged at 20,000×g for 30 min and the supernatant was centrifuged at 100,000×g for 90 min. The precipitate was suspended in 0.25 mol/L saccharose solution, superimposed on a 0.25 mol/L saccharose solution containing 7.5% Ficoll, and centrifuged at 100,000×g for 5 hr. The fraction containing the interface between the both layers was recovered, and centrifugally washed with 0.25 mol/L saccharose solution.
The obtained microsomal fraction was used as a proton, potassium—adenosine triphosphatase standard product.
To 40 μL of a 50 mmol/L HEPES-tris buffer (5 mmol/L magnesium chloride, 10 mmol/L potassium chloride, 10 μmol/L valinomycin, pH=6.5) containing 2.5 μg/mL (based on the protein concentration) of the enzyme standard product was added a test compound (5 μL) dissolved in a 10% aqueous dimethyl sulfoxide solution, and the mixture was incubated at 37° C. for 30 min. The enzyme reaction was started by adding 5 μL of a 2 mmol/L adenosine triphosphate tris salt solution (50 mmol/L HEPES-tris buffer (5 mmol/L magnesium chloride, pH 6.5)). The enzyme reaction was performed at 37° C. for 20 min, and 15 μL of a malachite green solution (0.12% malachite green solution in sulfuric acid (2.5 mol/L), 7.5% ammonium molybdate and 11% Tween 20 were mixed at a ratio of 100:25:2) was added to quench the reaction. After allowing to stand at room temperature for 15 min, the resulting reaction product of inorganic phosphorus with malachite green was colorimetrically determined at a wavelength of 610 nm. In addition, the amount of the inorganic phosphoric acid in the reaction solution free of potassium chloride was measured in the same manner, which was subtracted from the inorganic phosphoric acid amount in the presence of potassium chloride to determine the proton, potassium—adenosine triphosphatase activity. The inhibitory rate (%) was determined from the activity value of the control activity value and the activity values of various concentrations of the test compound, and the 50% inhibitory concentration (IC50) of the proton, potassium-adenosine triphosphatase was determined.

T1 sequence (P19156 2-1034 limits assumed): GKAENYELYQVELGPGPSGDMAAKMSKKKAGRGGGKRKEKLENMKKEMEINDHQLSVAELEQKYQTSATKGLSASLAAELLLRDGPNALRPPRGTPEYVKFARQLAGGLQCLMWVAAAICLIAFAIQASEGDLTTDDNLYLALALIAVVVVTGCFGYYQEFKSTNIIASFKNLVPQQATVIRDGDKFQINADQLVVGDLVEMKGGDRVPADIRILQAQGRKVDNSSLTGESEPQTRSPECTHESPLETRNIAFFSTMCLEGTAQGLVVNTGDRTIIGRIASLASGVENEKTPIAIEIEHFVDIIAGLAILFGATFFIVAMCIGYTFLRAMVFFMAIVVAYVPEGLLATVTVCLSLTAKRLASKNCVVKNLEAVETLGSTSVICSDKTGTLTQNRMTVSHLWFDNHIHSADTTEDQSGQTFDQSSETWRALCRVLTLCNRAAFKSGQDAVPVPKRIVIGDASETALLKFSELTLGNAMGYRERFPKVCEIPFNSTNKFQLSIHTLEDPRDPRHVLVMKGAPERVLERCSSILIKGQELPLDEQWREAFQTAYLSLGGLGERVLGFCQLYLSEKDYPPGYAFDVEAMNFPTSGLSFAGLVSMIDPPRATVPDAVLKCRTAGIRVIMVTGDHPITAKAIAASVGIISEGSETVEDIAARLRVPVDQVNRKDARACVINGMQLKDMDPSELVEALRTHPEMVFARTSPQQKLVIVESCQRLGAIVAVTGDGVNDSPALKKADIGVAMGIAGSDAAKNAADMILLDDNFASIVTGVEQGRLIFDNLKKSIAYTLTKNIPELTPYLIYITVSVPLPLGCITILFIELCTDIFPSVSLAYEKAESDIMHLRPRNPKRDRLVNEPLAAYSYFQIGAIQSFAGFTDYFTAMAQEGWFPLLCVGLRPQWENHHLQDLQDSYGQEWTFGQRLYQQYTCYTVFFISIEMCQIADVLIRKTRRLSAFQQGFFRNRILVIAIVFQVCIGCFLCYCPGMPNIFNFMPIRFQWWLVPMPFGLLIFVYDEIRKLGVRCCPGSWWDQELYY
T1 sequence (P18434 whole entry partner): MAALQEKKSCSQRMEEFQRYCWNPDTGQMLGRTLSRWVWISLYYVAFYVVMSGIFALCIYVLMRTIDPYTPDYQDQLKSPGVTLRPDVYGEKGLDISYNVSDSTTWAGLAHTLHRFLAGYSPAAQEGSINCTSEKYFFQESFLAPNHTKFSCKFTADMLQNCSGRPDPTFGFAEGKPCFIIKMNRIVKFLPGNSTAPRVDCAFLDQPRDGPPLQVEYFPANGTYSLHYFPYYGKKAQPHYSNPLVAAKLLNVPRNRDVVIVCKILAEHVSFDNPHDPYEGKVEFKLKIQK

IC50 [nM]	SMILES
180	CNCc1cn(-c2ccccc2)c(S(=O)(=O)c2ccccc2)c1C [Example 1, N-methyl-1-[4-methyl-1-phenyl-5-(phenylsulfonyl)-1H-pyrrol-3-yl]methanamine hydrochloride]
160	Cc1ccc(S(=O)(=O)n2cc(CN(C)C)nc2-c2ccccc2)cc1 [Example 5, N,N-dimethyl-1-{1-[(4-methylphenyl)sulfonyl]-2-phenyl-1H-imidazol-4-yl}methanamine 0.5 oxalate]
30	CNCc1cn(S(=O)(=O)c2cccc(OC)c2)c(-c2ccccc2)n1 [Example 7, 1-{1-[(3-methoxyphenyl)sulfonyl]-2-phenyl-1H-imidazol-4-yl}-N-methylmethanamine fumarate]
170	CNCc1nc(-c2ccccc2)c(S(=O)(=O)c2ccccc2)s1 [Example 12, N-methyl-1-[4-phenyl-5-(phenylsulfonyl)-1,3-thiazol-2-yl]methanamine hydrochloride]
